In patent US5756107A, “Formulations and methods for reducing skin irritation” (Cosmederm Technologies, priority 1994, dated 1998):
“Also recorded” adds a separate entry of the source. Counter-ions that a name gives are not always drawn.

Tests used:
[1] = system: subject's skin (skin irritation caused by lactic acid); assay: Lactic acid skin irritation challenge, double-blind randomized vehicle-controlled clinical trial (cumulative sensory irritation); assay type: in vivo, human; details: for anti-irritant activity (in words): clinical trials, topical; for Percent Inhibition: representative subject panels, cation concentrations of 250 mM, vehicle 10% EtOH; for Percent Inhibition (average inhibition of cumulative irritation): cation salts at 250 mM, average over clinical tests of over 550 subjects, 7.5% lactic acid challenge
Method: The trials were conducted in a double blind, randomized, vehicle-controlled manner. Various formulations of the invention were tested in over 550 people.
Controls were performed by applying a corresponding formulation without any added cation to a contralateral portion of the subject's skin.
The following scaled scores were used for sensory assessment:
Cumulative irritation data are set forth in the following tables, and are depicted in FIGS. 9 and 10.

skin irritation = assay: Inhibition of skin irritation by salts in Elizabeth Arden Visible Difference Refining Toner; assay type: in vivo; details: topical solution in Elizabeth Arden Visible Difference Refining Toner, various amounts
Method: Cation salts of the invention were formulated at various concentrations in various commercially available topical cosmetic products.
Topical solution forms of potassium nitrate, potassium chloride, potassium citrate, lithium sulfate, lithium nitrate and lithium acetate were prepared by combining various amounts of the named salts with Elizabeth Arden Visible Difference Refining Toner (an alcohol-containing solution).

tooth sensitivity = details: dentifrice, two to six weeks of continuous use; cited from earlier work
exposed tooth pulp = exposed tooth pulp vs dentin; cited from earlier work
exposed tooth nerves = details: cited from earlier work
[2] = cited from earlier work
sodium channels = details: cell membranes; cited from earlier work
[3] = in vivo, po; cited from earlier work
brains of test animals = details: applied directly to the brains of test animals; cited from earlier work

| SMILES | anti-irritant activity (in words) [1] | Percent Inhibition [1] | Percent Inhibition (average inhibition of cumulative irritation) [1] | inhibition of skin irritation (in words) (skin irritation) | further results |
| --- | --- | --- | --- | --- | --- |
| O=C(O)C(=O)O [Potassium oxalate, potassium oxalate] | particularly active as anti-irritants | 30% | – | – | – |
| O=[N+]([O-])[O-].[Li+] [Lithium nitrate] | particularly active as anti-irritants | 16% | 20% | effective to inhibit skin irritation | – |
| O=C([O-])CC(O)(CC(=O)[O-])C(=O)[O-].[K+].[K+].[K+] [potassium citrate] | – | – | – | effective to inhibit skin irritation | – |
| O=S(=O)([O-])[O-].[K+].[K+] [Potassium sulfate] | – | 27% | 15% | – | – |
| O=[N+]([O-])[O-].[K+] [Potassium nitrate] | particularly active as anti-irritants | 29% | 30% | effective to inhibit skin irritation | Percent Inhibition (cumulative irritation, dose-response) ([1]; 31 mM): -3%; Percent Inhibition (cumulative irritation, dose-response) ([1]; 125 mM): 18%; Percent Inhibition (cumulative irritation, dose-response) ([1]; 250 mM): 29%; Percent Inhibition (cumulative irritation, dose-response) ([1]; 500 mM): 60%; tooth sensitivity (tooth sensitivity): reduce tooth sensitivity |
| [K+] [potassium (K^+), potassium] | effective, when applied topically to the skin in appropriate concentrations and vehicles, to suppress the relatively severe stinging, burning, tingling, itching and/or erythema | – | – | – | pain on application to tooth pulp or dentin (exposed tooth pulp): pain is induced when potassium ion is applied to exposed tooth pulp but not when applied to the dentin; nerve electrical responses (exposed tooth nerves): evokes a transient electrical response followed by inhibition of excitability |
| O=S(=O)([O-])[O-].[Li+].[Li+] [Lithium sulfate] | overall efficacy of the subject formulations is evident; also recorded: particularly active as anti-irritants | 39% | 35% | effective to inhibit skin irritation | Percent Inhibition (cumulative irritation, dose-response) ([1]; 31 mM): 2%; Percent Inhibition (cumulative irritation, dose-response) ([1]; 62 mM): -7%; Percent Inhibition (cumulative irritation, dose-response) ([1]; 125 mM): 16%; Percent Inhibition (cumulative irritation, dose-response) ([1]; 250 mM): 27%; Percent Inhibition (cumulative irritation, dose-response) ([1]; 500 mM): 30% |
| O=S(=O)([O-])[O-].[Mg+2] [magnesium sulfate] | – | – | – | – | anesthesia or analgesia ([2]; intravenous): produces neither anesthesia nor even analgesia in humans |
| [Li+] [lithium (Li^+), lithium] | effective, when applied topically to the skin in appropriate concentrations and vehicles, to suppress the relatively severe stinging, burning, tingling, itching and/or erythema | – | – | – | anti-irritant efficacy, effect of glycerol in the vehicle ([1]; preliminary studies, low concentration, vehicle includes glycerol): increased if the vehicle includes glycerol; block of sodium channels (sodium channels): block sodium channels on cell membranes |
| [Mg+2] [magnesium] | – | – | – | – | paralysis of skeletal muscles ([2]; magnesium ion, intravenously-administered magnesium sulfate): induces paralysis of skeletal muscles; paralysis or depressed neural activity [3]: does not result in paralysis or depressed neural activity in healthy individuals; neural or synaptic activity (brains of test animals): depressed neural or synaptic activity, and even a sleep-like state; nerve electrical responses (exposed tooth nerves): may suppress nerve electrical responses |
| [Ca+2] [calcium] | – | – | – | – | nerve electrical responses (exposed tooth nerves): may suppress nerve electrical responses |
| O=C(O)O [Lithium carbonate, lithium carbonate] | particularly active as anti-irritants | 69% | – | – | – |
| [Cl-].[Li+] [Lithium chloride] | – | 6% | 0% | – | – |
| O=C([O-])[C@H](O)[C@@H](O)[C@H](O)[C@H](O)CO.[K+] [Potassium gluconate] | particularly active as anti-irritants | 25% | 25% | – | – |
| [Cl-].[K+] [Potassium chloride] | overall efficacy of the subject formulations is evident; also recorded: particularly active as anti-irritants | 38% | 40% | effective to inhibit skin irritation | – |
| [Cl-].[Cl-].[Sr+2] [strontium chloride, reference compound] | – | – | – | – | tooth sensitivity (tooth sensitivity): reduce tooth sensitivity |
| CC(=O)O [Lithium acetate] | particularly active as anti-irritants | 67% | 70% | effective to inhibit skin irritation | – |
